{
  "source": "patent US20250002991A1",
  "about": "“METHODS AND COMPOSITIONS FOR GENOME EDITING” (THE JOHNS HOPKINS UNIVERSITY, priority 2021, published 2025)",
  "key": {"[1]": {"tested_on": "MRE11 recruitment at the Cas9 target site (VEGFA site 3 on-target site; HEK293T, K562)", "assay": "MRE11 ChIP-qPCR at Cas9 target sites after exposure to DNA repair inhibitors", "assay_type": "cell-based, human", "details": "for MRE11 recruitment at the target site (ChIP-qPCR): Cas9 with gRNA targeting VEGFA site 3, HEK293T, 12 hours, 1 μM KU-60648, 20 µM Nu7026, 10 μM Ku-55933, 1 μM Scr7, 10 μM Olaparib", "excerpt": "(§1) The supernatant was decanted."}, "[2]": {"tested_on": "MRE11 at Cas9 on- and off-target sites in K562 cells", "assay": "MRE11 ChIP-seq with BLENDER off-target detection (DISCOVER-Seq+) in K562 cells", "assay_type": "cell-based, human", "excerpt": "as §1"}, "[3]": {"details": "previous evaluation, ref [21]; cited from earlier work"}, "Cas9 editing of ACTB": {"tested_on": "Cas9 editing of ACTB", "assay": "Sequencing of insertion-deletion mutations (indels) after Cas9 targeting ACTB", "assay_type": "cell-based", "details": "48 hours after Cas9 editing; especially +1 insertions reduced in favor of larger -3 deletions", "description": "Genomic DNA was extracted using the DNeasy Blood & Tissue Kit (Qiagen 69504) following manufacturer instructions. Approximately 1 million cells were used from cell lines and iPSCs. Approximately 10-20 μL of mouse liver cell suspension was used out of 1.5 mL total, and the genome extraction protocol included the Buffer ATL step since this sample is tissue.\nGenomic DNA samples were amplified with PCR using Q5 Hot Start High-Fidelity 2X Master Mix (New England BioLabs M0494). For example, the primer set for amplifying around the FANCF site 2 on-target site is NGS_FANCFs2_ON_F and NGS_FANCFs2_ON_R. After amplicon PCR, cleanup was performed using 1.4×AMPure XP (Beckman Coulter A63881) following the manufacturer's instructions. Dual-indexing PCR was performed using KAPA HiFi HotStart ReadyMix (Roche 07958935001) and PCR cleanup was performed using 1×AMPure XP. Samples were quantified using QuBit (Thermo Fisher Scientific), pooled, diluted, and loaded onto a MiSeq (Illumina). […]\nSequencing reads were either demultiplexed automatically using MiSeq Reporter (Illumina) or with a custom Python script to individual FASTQ files. For indel calling, sequencing reads were scanned for exact matches to two 20-bp sequences that flank +/−20 bp from the ends of the target sequence. If no exact matches were found, the read was excluded from analysis. […]"}, "[4]": {"tested_on": "MRE11 at Cas9 TRA target sites in primary human T-cells", "assay": "DISCOVER-Seq+ in primary human T-cells with Cas9 targeting TRA (CAR knock-in)", "assay_type": "cell-based", "excerpt": "as §1"}, "[5]": {"tested_on": "MRE11 at Cas9 PCSK9 target sites in mouse liver", "assay": "DISCOVER-Seq+ in liver of mice given adenovirus Cas9/gRNA targeting PCSK9", "assay_type": "in vivo, mouse (C57BL/6J)", "description": "For in vivo gene delivery, 8-10 week old mice were anesthetized with 2.5% isofluorane/oxygen mixture. Mice received a single retro-orbital injection of 1×10^9 infectious adenoviral particles (Ad-Cas9-U6-mPCSK9-sgRNA) in 100 μL sterile saline. Immediately following, mice received intraperitoneal delivery of KU-60648 dosed at 25 mg/kg (or vehicle only) in 100 μL of citrate buffer, or 100 μL of citrate buffer vehicle. Mice received a dose of KU-60648 or vehicle every 12 hrs via intraperitoneal injection.\nAt the experimental endpoint of 12 h, mice were anesthetized with isofluorane and euthanized via cervical dislocation. Liver tissue was harvested, washed 3× in 2 mL PBS with 1× protease inhibitor (Halt™ Protease Inhibitor Cocktail, Thermo), then disrupted the tissue in 1 mL PBS with 1× protease inhibitor using a loose-fitting Dounce homogenizer. For MRE11 ChIP-seq, homogenized tissue was placed on ice and used immediately.\nas §1"}, "[6]": {"tested_on": "53BP1 and BRCA1 foci in U2OS cells stably expressing Cas9-EGFP", "assay": "Super-resolution STED microscopy of 53BP1 and BRCA1 repair foci after Cas9-induced DNA breaks", "assay_type": "cell-based", "description": "U2OS cells stably expressing Cas9-EGFP cells were seeded onto 35-mm, glass bottom dishes and transfected with mtgRNAs for 12-24 hrs. Cleavage was activated by UV light for 1 minute. To fix cells, 4% of pre-warmed paraformaldehyde in 1×PBS was used for 10 min. After rinsing 3 times with 1×PBS, cell membrane permeabilization was done with Triton-X used for 10 min. Then, cells 2% w/v BSA in 1×PBS was used for blocking for 1 hr and at room temperature. The primary antibodies, mouse anti-BRCA1 (D-9 sc-6954 Santa Cruz) and anti-53bpl (Abcam, ab172580), were diluted (1:500) in 1×PBS and directly added into the imaging dish. After 1 hr incubation, the primary antibody was removed, and the sample was washed with 1×PBS three times. The samples were then incubated for 30 minutes with the secondary antibodies Alexa-594 and Atto-647N diluted (1:1000) in 1×PBS. Finally, the sample was rinsed three times and mounted with Prolong Diamond mounting media (Thermo Fisher Scientific) overnight.\nAll STED images were obtained using a home-built two-color STED microscope (Han and Ha, 2015: Ma and Ha, 2019). In short, a femtosecond laser beam with a repetition rate of 80 MHz from a Ti: Sapphire laser head (Mai Tai HP, Spectra-Physics) is split into two parts: one part produces an excitation beam coupled into a photonic crystal fiber (Newport) for wide-spectrum light generation. […]"}},
  "data": [
    {"smiles": "O=c1cc(-c2cccc3c2Sc2ccccc2S3)oc(N2CCOCC2)c1", "note": "[Ku-55933]", "values": [
      {"measurement": "MRE11 recruitment at the target site (ChIP-qPCR)", "setting": "[1]", "result": "did not exhibit a clear effect"}
    ]},
    {"smiles": "CCN1CCN(CC(=O)Nc2ccc(-c3cccc4c(=O)cc(N5CCOCC5)oc34)c3sc4ccccc4c23)CC1", "note": "[Ku-60648, 2-(4-ethylpiperazin-1-yl)-N-[4-(2-morpholin-4-yl-4-oxochromen-8-yl)dibenzothiophen-1-yl]acetamide]", "values": [
      {"measurement": "MRE11 recruitment at the target site (ChIP-qPCR)", "setting": "[1]", "result": "significantly increased MRE11 recruitment"},
      {"measurement": "estimated RPM enrichment normalized to the no drug sample (MRE11 ChIP-qPCR)", "setting": "[1]; VEGFA site 2 (4 h, 12 h, 24 h) and HEK site 4 in HEK293T, FANCF site 2 in K562, versus without inhibitor, p=0.0001, n=14", "result": "significantly higher"},
      {"measurement": "MRE11 ChIP-seq enrichment at all discovered on- and off-target sites", "setting": "[2]; K562, 12 hours after Cas9 delivery, FANCF site 2 or VEGFA site 2 gRNA, p<1E-3", "result": "significantly increased MRE11 ChIP-seq enrichment"},
      {"measurement": "fold increase in discovered Cas9 target sites versus without DNA-PKcs inhibition", "setting": "[2]; VEGFA site 2 gRNA, K562", "result": "over 5 fold"},
      {"measurement": "total Cas9 target sites discovered", "setting": "[2]; VEGFA site 2 gRNA, K562, with DNA-PKcs inhibition (36 sites without)", "result": 181},
      {"measurement": "penetration into tissue", "setting": "[3]", "result": "strongly penetrations into tissue including tumors"},
      {"measurement": "pharmacokinetics", "setting": "[3]", "result": "good pharmacokinetics"},
      {"measurement": "indel editing after Cas9 targeting ACTB", "setting": "Cas9 editing of ACTB", "result": "reduction in editing"},
      {"measurement": "off-target sites identified genome-wide", "setting": "[4]; Cas9 targeting TRA, 12 hours (4 with DISCOVER-Seq)", "result": 20},
      {"measurement": "MRE11 enrichment at all discovered sites", "setting": "[4]; Cas9 targeting TRA, versus DISCOVER-Seq without drug", "result": "significantly greater MRE11 enrichment"},
      {"measurement": "MRE11 enrichment in samples without Cas9 (negative control)", "setting": "[4]; samples without Cas9", "result": "did not exhibit any change in enrichment"},
      {"measurement": "average number of target sites identified across 5 biological replicates", "setting": "[5]; 25 mg/kg b.i.d., mouse liver (18 sites with vehicle), p<0.05", "result": 27},
      {"measurement": "target sites identified, sequencing reads pooled across all 5 replicates", "setting": "[5]; 25 mg/kg b.i.d., mouse liver (51 with vehicle)", "result": 101},
      {"measurement": "MRE11 ChIP-seq signal in liver", "setting": "[5]; 25 mg/kg peritoneal b.i.d., versus without DNA-PKcs inhibition, p<1E-4", "result": "significantly increased MRE11 ChIP-seq signal"},
      {"measurement": "53BP1 foci relative to BRCA1", "setting": "[6]; Cas9 with multi-target gRNA targeting over 100 locations", "result": "reduction in 53BP1 foci relative to BRCA1"},
      {"measurement": "number of 53BP1 and BRCA1 foci in the absence of Cas9 (DNA damage by inhibitor alone)", "setting": "[6]; without Cas9", "result": "did not change the number of 53BP1 and BRCA1 foci"}
    ]},
    {"smiles": "O=c1cc(N2CCOCC2)oc2c1ccc1ccccc12", "note": "[Nu7026, 2-(morpholin-4-yl)benzo (h) chromen-4-one]", "values": [
      {"measurement": "MRE11 recruitment at the target site (ChIP-qPCR)", "setting": "[1]", "result": "significantly increased MRE11 recruitment"}
    ]},
    {"smiles": "O=C(c1cc(Cc2n[nH]c(=O)c3ccccc23)ccc1F)N1CCN(C(=O)C2CC2)CC1", "note": "[Olaparib]", "values": [
      {"measurement": "MRE11 recruitment at the target site (ChIP-qPCR)", "setting": "[1]", "result": "did not exhibit a clear effect"}
    ]},
    {"smiles": "O=c1[nH]c(=S)[nH]c(N=Cc2ccccc2)c1N=Cc1ccccc1", "note": "[Scr7]", "values": [
      {"measurement": "MRE11 recruitment at the target site (ChIP-qPCR)", "setting": "[1]", "result": "suppressed MRE11 recruitment"}
    ]}
  ]
}
